Test results reported in ChEMBL document CHEMBL5543162, “Discovery of a Novel Orally Bioavailable FLT3-PROTAC Degrader for Efficient Treatment of Acute Myeloid Leukemia and Overcoming Resistance of FLT3 Inhibitors” (J Med Chem, 2024).
The source made the active and inactive calls. The rule behind the calls is not given here.

How the values were obtained:
[1] = Stability in dog liver microsomes assessed as half life; format: ADME, Canis lupus familiaris, Microsome
[2] = tested on: Protein cereblon/Receptor-type tyrosine-protein kinase FLT3 (Homo sapiens), P36888+Q96SW2 [UNDEFINED MUTATION]; assay: PROTAC activity at CRBN/FLT3-ITD mutant in human MOLM-13 cells assessed as decrease in S6K level at 20 nM by Western blot analysis; format: cell-based; conditions: time <= 12.0 hrs, TDE = time-dependent effect
[3] = tested on: Protein cereblon/Receptor-type tyrosine-protein kinase FLT3 (Homo sapiens), P36888+Q96SW2 [UNDEFINED MUTATION]; assay: PROTAC activity at CRBN/FLT3-ITD mutant in human MV4-11 cells assessed as protein degradation at 100 nM incubated for 24 hrs followed by compound washout measured upto 48 hrs by Western blot analysis; format: cell-based; conditions: time 72.0 hrs
[4] = tested on: Protein cereblon/Receptor-type tyrosine-protein kinase FLT3 (Homo sapiens), P36888+Q96SW2 [UNDEFINED MUTATION]; assay: PROTAC activity at CRBN/FLT3-ITD in human MV4-11 cells assessed as protein degradation by TMT-based global proteomic profiling analysis; format: cell-based
[5] = Oral bioavailability in Sprague-Dawley rat at 10 mg/kg measured for 24 hrs by LC-MS/MS analysis; format: ADME, organism-based; conditions: in vivo
[6] = AUC (0 to t) in Sprague-Dawley rat at 10 mg/kg, po measured for 24 hrs by LC-MS/MS analysis; format: ADME, organism-based; conditions: in vivo
Cytochrome P450 2B6 = biological target: T1, Cytochrome P450 2B6 (Homo sapiens, UniProt P20813); assay: Inhibition of CYP2B6 (unknown origin); format: ADME
T1 sequence (P20813 whole entry): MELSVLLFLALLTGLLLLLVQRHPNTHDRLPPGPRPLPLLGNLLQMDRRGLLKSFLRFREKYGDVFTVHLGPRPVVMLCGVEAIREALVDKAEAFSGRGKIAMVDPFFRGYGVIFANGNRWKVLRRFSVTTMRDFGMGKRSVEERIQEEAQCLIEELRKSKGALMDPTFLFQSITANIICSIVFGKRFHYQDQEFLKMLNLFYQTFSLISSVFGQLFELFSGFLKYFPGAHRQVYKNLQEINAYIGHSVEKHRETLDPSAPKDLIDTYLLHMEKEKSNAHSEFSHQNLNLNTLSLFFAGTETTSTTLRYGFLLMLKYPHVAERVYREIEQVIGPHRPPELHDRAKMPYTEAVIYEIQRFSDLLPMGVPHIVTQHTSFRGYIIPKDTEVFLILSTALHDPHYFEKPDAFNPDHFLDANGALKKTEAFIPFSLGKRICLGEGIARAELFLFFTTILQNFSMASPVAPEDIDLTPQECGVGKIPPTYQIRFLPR

Cytochrome P450 2C8 = biological target: T2, Cytochrome P450 2C8 (Homo sapiens, UniProt P10632); assay: Inhibition of CYP2C8 (unknown origin); format: ADME
T2 sequence (P10632 whole entry): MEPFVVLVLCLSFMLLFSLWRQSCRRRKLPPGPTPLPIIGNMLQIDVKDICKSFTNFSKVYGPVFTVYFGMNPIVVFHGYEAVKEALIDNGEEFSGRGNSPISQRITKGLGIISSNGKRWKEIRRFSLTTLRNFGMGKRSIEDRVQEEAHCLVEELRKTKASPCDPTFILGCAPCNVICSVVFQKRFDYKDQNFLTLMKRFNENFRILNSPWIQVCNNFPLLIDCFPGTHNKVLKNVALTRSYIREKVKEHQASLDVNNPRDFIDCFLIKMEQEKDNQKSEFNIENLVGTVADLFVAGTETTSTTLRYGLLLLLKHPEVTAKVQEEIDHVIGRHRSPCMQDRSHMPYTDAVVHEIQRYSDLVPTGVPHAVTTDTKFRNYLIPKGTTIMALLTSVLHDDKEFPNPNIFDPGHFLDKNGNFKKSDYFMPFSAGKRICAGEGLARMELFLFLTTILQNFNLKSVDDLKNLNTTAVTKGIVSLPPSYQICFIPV

Mus musculus [7] = assay: Anti-leukemic activity in NSG mouse xenografted with human MV4-11 cells expressing luciferase assessed as decrease in CD45+/CD33+ cells proportion in bone marrow at 1.25 to 10 mg/kg, po administered daily for 3 weeks; format: functional, organism-based; conditions: dose 1.25-10 mg/kg
[8] = Stability in dog liver microsomes assessed as hepatic clearance; format: ADME, Canis lupus familiaris, Microsome
Mus musculus [9] = assay: Anti-leukemic activity in NSG mouse xenografted with human MV4-11 cells expressing luciferase assessed as decrease in CD45+/CD33+ cells proportion in peripheral blood at 1.25 to 10 mg/kg, po administered daily for 3 weeks; format: functional, organism-based; conditions: dose 1.25-10 mg/kg
[10] = Stability in Sprague-Dawley rat intestinal fluid at 50 ug/ml incubated upto 8 hrs by LC-MS/MS analysis; format: ADME, tissue-based, Intestine; conditions: simulated gi fluid, at 50 µg/mL
MV4-11 [11] = assay: Antitumor activity against human MV4-11 cells xenografted with nude mouse assessed as decrease in tumor growth at 120 mg/kg, po administered daily measured after 3 days; format: functional, organism-based; conditions: time 3.0 day
[12] = Toxicity in NSG mouse xenografted with human MV4-11 cells expressing luciferase assessed as physiological change at 10 mg/kg, po administered daily for 3 weeks; format: organism-based; conditions: in vivo, 504 h
[13] = Stability in human liver microsomes assessed as intrinsic clearance; format: ADME, Microsome; conditions: read-out: CLH
[14] = tested on: Protein cereblon/Receptor-type tyrosine-protein kinase FLT3 (Homo sapiens), P36888+Q96SW2 [UNDEFINED MUTATION]; assay: PROTAC activity at CRBN/FLT3-ITD mutant in human MOLM-13 cells assessed as decrease in STAT5 level at 20 nM by Western blot analysis; format: cell-based; conditions: time <= 12.0 hrs, TDE = time-dependent effect
[15] = tested on: Protein cereblon/Receptor-type tyrosine-protein kinase FLT3 (Homo sapiens), P36888+Q96SW2 [UNDEFINED MUTATION]; assay: PROTAC activity at CRBN/FLT3-ITD in human MV4-11 cells assessed as effect on PI3K-Akt signalling pathway by KEGG analysis; format: cell-based
MV4-11 [16] = assay: Induction of proapoptosis in human MV4-11 cells xenografted in nu/nu mouse assessed as increase in cleaved caspase-3 level at 1.25 to 10 mg/kg, po administered daily for 2 weeks; format: functional, organism-based; conditions: dose 1.25-10 mg/kg
[17] = Stability in rat liver microsomes assessed as half life; format: ADME, Microsome
[18] = Stability in human liver microsomes assessed as half life; format: ADME, Microsome
[19] = Clearance in Sprague-Dawley rat at 1 mg/kg, iv measured for 24 hrs by LC-MS/MS analysis; format: ADME, organism-based; conditions: in vivo
[20] = tested on: Protein cereblon/Receptor-type tyrosine-protein kinase FLT3 (Homo sapiens), P36888+Q96SW2 [UNDEFINED MUTATION]; assay: PROTAC activity at CRBN/FLT3-ITD mutant in human MV4-11 cells assessed as decrease in STAT5 level incubated for 12 hrs by Western blot analysis; format: cell-based; conditions: dose <= 20.0 nM
MV4-11 [21] = assay: Antitumor activity against human MV4-11 cells xenografted in nu/nu mouse at 5 mg/kg, po administered daily for 2 weeks relative to control; format: functional; conditions: MV4-11, 336 h, read-out: TGI
[22] = Toxicity in NSG mouse xenografted with human MV4-11 cells expressing luciferase assessed as obvious adverse response at 1.25 to 10 mg/kg, po administered daily for 3 weeks; format: organism-based; conditions: in vivo, 504 h, dose 1.25-10 mg/kg
BaF3 = assay: Antiproliferative activity against mouse Ba/F3 cells expressing FLT3-ITD D835Y mutant incubated for 48 hrs by CCK8 assay; format: functional, cell-based; conditions: BaF3, 48 h
Cytochrome P450 2D6 = Cytochrome P450 2D6 (Homo sapiens, UniProt P10635); assay: Inhibition of CYP2D6 (unknown origin); format: ADME
[23] = tested on: Protein cereblon/Receptor-type tyrosine-protein kinase FLT3 (Homo sapiens), P36888+Q96SW2 [UNDEFINED MUTATION]; assay: PROTAC activity at CRBN/FLT3-ITD mutant in human MOLM-13 cells assessed as decrease in S6K level incubated for 12 hrs by Western blot analysis; format: cell-based; conditions: dose <= 20.0 nM
[24] = tested on: Protein cereblon/Receptor-type tyrosine-protein kinase FLT3 (Homo sapiens), P36888+Q96SW2 [UNDEFINED MUTATION]; assay: PROTAC activity at CRBN/FLT3-ITD mutant in human MV4-11 cells assessed as protein degradation at 20 nM by Western blot analysis; format: cell-based; conditions: time <= 12.0 hrs, TDE = time-dependent effect

Sequence of Protein cereblon/Receptor-type tyrosine-protein kinase FLT3 (Homo sapiens), P36888+Q96SW2 [UNDEFINED MUTATION] (P36888 whole entry, looked up, stated change not applied): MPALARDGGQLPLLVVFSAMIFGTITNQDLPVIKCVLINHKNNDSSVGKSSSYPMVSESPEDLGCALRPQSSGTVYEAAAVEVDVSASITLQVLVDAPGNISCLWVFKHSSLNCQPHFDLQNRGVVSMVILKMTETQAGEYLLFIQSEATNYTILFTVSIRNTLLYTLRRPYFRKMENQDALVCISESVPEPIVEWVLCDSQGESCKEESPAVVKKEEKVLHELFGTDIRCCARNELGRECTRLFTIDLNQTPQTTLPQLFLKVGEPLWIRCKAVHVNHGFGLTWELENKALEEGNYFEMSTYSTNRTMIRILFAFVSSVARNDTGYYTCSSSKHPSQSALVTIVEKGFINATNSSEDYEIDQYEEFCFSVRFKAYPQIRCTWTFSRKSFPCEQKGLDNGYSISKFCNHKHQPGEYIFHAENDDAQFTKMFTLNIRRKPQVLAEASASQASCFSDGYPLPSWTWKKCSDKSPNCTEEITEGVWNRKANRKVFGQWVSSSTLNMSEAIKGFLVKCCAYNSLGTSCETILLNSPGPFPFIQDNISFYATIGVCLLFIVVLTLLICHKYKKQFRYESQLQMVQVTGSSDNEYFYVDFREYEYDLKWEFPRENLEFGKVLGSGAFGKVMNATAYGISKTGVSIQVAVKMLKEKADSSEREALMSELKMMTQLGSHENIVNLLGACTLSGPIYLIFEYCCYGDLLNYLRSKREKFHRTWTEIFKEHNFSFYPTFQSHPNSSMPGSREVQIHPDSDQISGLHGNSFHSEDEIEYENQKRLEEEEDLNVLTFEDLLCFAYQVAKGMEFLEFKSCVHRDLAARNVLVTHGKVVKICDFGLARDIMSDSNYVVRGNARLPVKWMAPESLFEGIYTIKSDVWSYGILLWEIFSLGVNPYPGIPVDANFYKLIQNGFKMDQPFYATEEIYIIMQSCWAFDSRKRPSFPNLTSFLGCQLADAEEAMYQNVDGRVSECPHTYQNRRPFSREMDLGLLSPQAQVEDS
Sequence of Protein cereblon/Receptor-type tyrosine-protein kinase FLT3 (Homo sapiens), P36888+Q96SW2 [UNDEFINED MUTATION] (Q96SW2 whole entry, looked up, stated change not applied): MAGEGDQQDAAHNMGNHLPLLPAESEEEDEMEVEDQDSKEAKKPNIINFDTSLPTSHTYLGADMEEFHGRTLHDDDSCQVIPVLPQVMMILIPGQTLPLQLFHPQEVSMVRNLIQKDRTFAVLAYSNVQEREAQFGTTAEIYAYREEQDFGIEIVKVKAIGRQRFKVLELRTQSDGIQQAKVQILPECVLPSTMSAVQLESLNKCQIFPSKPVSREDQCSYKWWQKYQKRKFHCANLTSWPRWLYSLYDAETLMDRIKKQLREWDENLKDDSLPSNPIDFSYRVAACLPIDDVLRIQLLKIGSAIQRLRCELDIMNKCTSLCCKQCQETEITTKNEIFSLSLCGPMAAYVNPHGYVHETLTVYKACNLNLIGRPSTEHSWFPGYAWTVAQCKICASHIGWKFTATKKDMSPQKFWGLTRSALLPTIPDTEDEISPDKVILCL
Sequence of Cytochrome P450 2D6 (P10635 whole entry): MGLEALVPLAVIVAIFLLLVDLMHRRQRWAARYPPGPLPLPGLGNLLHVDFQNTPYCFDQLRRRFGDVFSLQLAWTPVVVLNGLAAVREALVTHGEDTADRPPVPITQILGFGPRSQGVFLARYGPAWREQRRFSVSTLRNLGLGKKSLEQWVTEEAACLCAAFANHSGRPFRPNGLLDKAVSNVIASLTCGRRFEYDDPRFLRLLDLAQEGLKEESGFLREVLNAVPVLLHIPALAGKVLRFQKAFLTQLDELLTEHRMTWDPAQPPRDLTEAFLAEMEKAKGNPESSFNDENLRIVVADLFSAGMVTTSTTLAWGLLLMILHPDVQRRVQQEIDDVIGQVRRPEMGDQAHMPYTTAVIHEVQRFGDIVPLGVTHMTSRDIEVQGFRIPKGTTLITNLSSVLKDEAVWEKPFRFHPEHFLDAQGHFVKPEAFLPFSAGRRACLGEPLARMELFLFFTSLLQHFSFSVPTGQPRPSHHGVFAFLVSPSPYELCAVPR

For Cc1c(NC(=O)CN2CCN(CC3CCN(c4ccc5c(c4)C(=O)N(C4CCC(=O)NC4=O)C5=O)CC3)CC2)c[nH]c1/C=C1\C(=O)Nc2ccc(F)cc21 (stereo not drawn), the half-life [1] was 1.88 h, the Activity [2] was “Tde” and the Activity [3] was “Active”. The Activity [4] was “Active”, the bioavailability [5] was 53% and the AUC(0-t) at 24 h [6] was 14.7 µg·h/mL. For the same compound, the IC50 (Cytochrome P450 2B6) was > 50 µM, the IC50 (Cytochrome P450 2C8) was > 50 µM and the Activity (Mus musculus [7]) was “Active”. The CLhep predicted [8] was 0.678 L/h/kg, the Activity (Mus musculus [9]) was “Active” and the Stability [10] was “Stable”. The Activity (MV4-11 [11]) was “Active”, the Activity [12] was “Non-Toxic” and the CLint scaled [13] was 1.39 L/h/kg. For the same compound, the Activity [14] was “Tde”, the Activity [15] was “Active” and the Activity (MV4-11 [16]) was “Active”. It also gave a half-life [17] of 1.54 h, a half-life [18] of 1.16 h and a clearance [19] of 0.21 L/h/kg. The Activity [20] was “Dose-Dependent Effect”, the inhibition in vivo at 5 mg/kg (MV4-11 [21]) was 97.5% and the Activity [22] was “Non-Toxic”. For the same compound, the IC50 (BaF3) was 0.0313 µM, the IC50 (Cytochrome P450 2D6) was > 50 µM and the Activity [23] was “Dose-Dependent Effect”. The Activity [24] was “Tde”.
